Measurements as given in ChEMBL document CHEMBL1157896, “A repurposing strategy identifies novel synergistic inhibitors of Plasmodium falciparum heat shock protein 90” (J Med Chem, 2010).
Activity calls are given as the source filed them. The calls are words filed in the database; no cut-off is given here.

Columns and labels:
[1] = test system: Plasmodium falciparum; test: Displacement of bis-ANS from Plasmodium falciparum 3D7 Hsp90 expressed in Escherichia coli BL21(DE3) assessed as reduction in fluorescence at 100 uM after 30 min by fluorescent monochromator spectrophotometry; assay type: functional; design: scale not given: the % may be the effect or the level left
[2] = target: Heat shock protein HSP90 (Homo sapiens) (UniProt P07900+P08238); test: Displacement of bis-ANS from human Hsp90 assessed as reduction in fluorescence at 100 uM after 30 mins by fluorescent monochromator spectrophotometry; assay type: protein assay
[3] = test system: Plasmodium falciparum; test: Antimalarial activity against chloroquine-resistant Plasmodium falciparum W2 infected in human erythrocytes after 48 hrs by flow-cytometry; assay type: functional, organism-based; details: W2, 48 h
[4] = test system: Plasmodium falciparum; test: Antimalarial activity against Plasmodium falciparum 3D7 infected in human erythrocytes after 48 hrs by flow-cytometry; assay type: functional, organism-based; details: 3D7, 48 h
[5] = test system: Plasmodium falciparum; test: Antimalarial activity against multidrug-resistant Plasmodium falciparum isolate 208432 infected in human erythrocytes after 48 hrs by flow-cytometry; assay type: functional, organism-based; details: isolate 208432, 48 h

Structure (SMILES) | Activity [1] | Activity [2] | IC50 [3] | IC50 [4] | IC50 [5]
NC(CP(=O)(O)O)C(=O)O (racemic) | > 70% | inactive | 84.4 nM | 60.3 nM | 47.1 nM
C[C@@H]1CC[C@H]2[C@@H](C)C(=O)O[C@@H]3O[C@@]4(C)CC[C@@H]1[C@]32OO4 [ARTEMISININ] |  |  | 7.3 nM | 6.1 nM | 68.3 nM
COc1ccc2c(c1)[nH]c1c(C)nccc12 [HARMINE] | > 70% | inactive | 28 nM | 50.1 nM | 182 nM
OC(c1cc(C(F)(F)F)nc2c(C(F)(F)F)cccc12)C1CCCCN1 (stereo not given) [MEFLOQUINE] |  |  | 3.2 nM | 2.1 nM | 
